The source made the active and inactive calls. The calls are words filed in the database; no cut-off is given here.
Columns and labels:
Staphylococcus aureus [1] = assay: Antibacterial activity against Staphylococcus aureus ATCC25923 assessed as reduction in bacterial growth; type: functional
Staphylococcus aureus [2] = assay: Antibacterial activity against Staphylococcus aureus ATCC29213 assessed as reduction in bacterial growth; type: functional
[3] = Antiproliferative activity against HEK293 cells assessed as inhibition of cell growth measured after 72 hrs by CCK-8 method; type: toxicity, cell-based; conditions: human
[4] = Antiproliferative activity against human L02 cells assessed as inhibition of cell growth measured after 72 hrs by CCK-8 method; type: toxicity, cell-based
[5] = Antiproliferative activity against human HCoEpiC cells assessed as inhibition of cell growth measured after 72 hrs by CCK-8 method; type: toxicity, cell-based
HCT-116 [6] = assay: Inhibition of mitochondrial function in human HCT-116 cells assessed as reduction in ATP production; type: functional, cell-based
Cell membrane = assay: Induction of mitochondrial membrane potential loss in human HCT-116 cells assessed as increase in green fluorescence at high dose measured after 48 hrs by JC-1 staining based microscopy analysis; type: cell membranes
HCT-116 [7] = assay: Induction of apoptosis in human HCT-116 cells measured after 48 hrs by annexin V-FITC/7-AAD based flow cytometry analysis; type: functional, cell-based
HCT-116 [8] = assay: Induction of apoptosis in human HCT-116 cells assessed as cell death at 2 uM measured after 48 hrs by annexin V-FITC/7-AAD based flow cytometry analysis relative to control; type: functional
HCT-116 [9] = assay: Induction of apoptosis in human HCT-116 cells assessed as reduction in SDHB expression measured after 48 hrs by Western blot analysis; type: functional, cell-based; conditions: dose 0.5-2 µM
HCT-116 [10] = assay: Induction of apoptosis in human HCT-116 cells assessed as upregulation of bax expression at 0.5 to 2 uM measured after 48 hrs by Western blot analysis; type: functional, cell-based; conditions: dose 0.5-2 µM
HCT-116 [11] = assay: Induction of apoptosis in human HCT-116 cells assessed as downregulation of bcl-2 expression at 0.5 to 2 uM measured after 48 hrs by Western blot analysis; type: functional, cell-based; conditions: dose 0.5-2 µM
HCT-116 [12] = assay: Induction of cell cycle arrest in human HCT-116 cells assessed as increase in number of cells at G2 phase at 0.5 uM measured after 48 hrs by PI staining based flow cytometry analysis; type: functional
[13] = Acute toxicity in BALB/c mouse assessed as survival at 50 mg/kg, iv administered as single dose measured upto 14 days; type: organism-based; conditions: in vivo, 336 h, time < 14 day
[14] = Acute toxicity in BALB/c mouse assessed as effect on heart at 50 mg/kg, iv administered as single dose measured upto 14 days by H and E staining based analysis; type: organism-based; conditions: in vivo, 336 h, time < 14 day
[15] = Acute toxicity in BALB/c mouse assessed as effect on liver at 50 mg/kg, iv administered as single dose measured upto 14 days by H and E staining based analysis; type: organism-based; conditions: in vivo, 336 h, time < 14 day
[16] = Acute toxicity in BALB/c mouse assessed as effect on spleen at 50 mg/kg, iv administered as single dose measured upto 14 days by H and E staining based analysis; type: organism-based; conditions: in vivo, 336 h, time < 14 day
[17] = Acute toxicity in BALB/c mouse assessed as effect on lung at 50 mg/kg, iv administered as single dose measured upto 14 days by H and E staining based analysis; type: organism-based; conditions: in vivo, 336 h, time < 14 day
[18] = Acute toxicity in BALB/c mouse assessed as reduction in body weight at low dose iv measured upto 21 days relative to control; type: organism-based; parameters: scale not given: the % may be the effect or the level left; conditions: in vivo, 504 h, time < 21 day
[19] = Acute toxicity in BALB/c mouse assessed as effect on body weight at middle to high dose iv measured upto 21 days relative to control; type: organism-based; conditions: in vivo, 504 h, time < 21 day
HCT-116 [20] = assay: Antitumor activity against human HCT-116 cells xenografted in BALB/c nude mouse model assessed as reduction in tumor volume at 1.25 mg/kg,iv administered twice weekly and measured upto 21 days relative to control; type: functional; parameters: scale not given: the % may be the effect or the level left; conditions: time <= 21 day
HCT-116 [21] = assay: Antitumor activity against human HCT-116 cells xenografted in BALB/c nude mouse model assessed as reduction in tumor volume at 2.5 mg/kg,iv administered twice weekly and measured upto 21 days relative to control; type: functional; parameters: scale not given: the % may be the effect or the level left; conditions: time <= 21 day
HCT-116 [22] = assay: Antitumor activity against human HCT-116 cells xenografted in BALB/c nude mouse model assessed as reduction in SDHB expression at upto 5 mg/kg, iv administered twice weekly by Western blot analysis; type: functional, organism-based
HCT-116 [23] = assay: Antitumor activity against human HCT-116 cells xenografted in BALB/c nude mouse model assessed as decrease in Bcl-2 expression at upto 5 mg/kg, iv administered twice weekly by Western blot analysis; type: functional, organism-based
[24] = Cmax in Sprague-Dawley rat at 10 mg/kg, iv by LC-MS/MS analysis; type: ADME, organism-based; conditions: in vivo
[25] = AUC (0 to 12hrs) in Sprague-Dawley rat at 10 mg/kg, iv by LC-MS/MS analysis; type: ADME, organism-based; conditions: in vivo
[26] = Half life in Sprague-Dawley rat at 10 mg/kg, iv by LC-MS/MS analysis; type: ADME, organism-based; conditions: in vivo
[27] = Clearance in Sprague-Dawley rat at 10 mg/kg, iv by LC-MS/MS analysis; type: ADME, organism-based; conditions: in vivo
[28] = Cmax in Sprague-Dawley rat at 10 mg/kg, po by LC-MS/MS analysis; type: ADME, organism-based; conditions: in vivo
[29] = AUC (0 to 12hrs) in Sprague-Dawley rat at 10 mg/kg, po by LC-MS/MS analysis; type: ADME, organism-based; conditions: in vivo
[30] = MRT (0 to 12hrs) in Sprague-Dawley rat at 10 mg/kg, po by LC-MS/MS analysis; type: ADME, organism-based; conditions: in vivo
[31] = Oral bioavailability in Sprague-Dawley rat at 10 mg/kg by LC-MS/MS analysis; type: ADME, organism-based; conditions: in vivo
[32] = Metabolic stability in human liver microsomes assessed as intrinsic clearance at 1 uM measured upto 60 mins in presence of NADPH regenerating system by LC-MS/MS analysis; type: ADME, Microsome; conditions: read-out: CLH
HCT-116 [33] = assay: Upregulation of ATF3 mRNA expression in human HCT-116 cells by RT-PCR analysis; type: functional, cell-based
HCT-116 [34] = assay: Upregulation of DDIT3 mRNA expression in human HCT-116 cells by RT-PCR analysis; type: functional, cell-based
HCT-116 [35] = assay: Upregulation of DDIT4 expression in human HCT-116 cells measured after 48 hrs by Western blot analysis; type: functional, cell-based
HCT-116 [36] = assay: Upregulation of ID1 expression in human HCT-116 cells measured after 48 hrs by Western blot analysis; type: functional, cell-based
HCT-116 [37] = assay: Upregulation of CHAC1 expression in human HCT-116 cells measured after 48 hrs by Western blot analysis; type: functional, cell-based
HCT-116 [38] = assay: Effect on DDIT3 expression in ClpP knockdown human HCT-116 cells at 2 uM measured after 48 hrs by Western blot analysis; type: functional, cell-based
HCT-116 [39] = assay: Effect on JUN expression in ClpP knockdown human HCT-116 cells at 2 uM measured after 48 hrs by Western blot analysis; type: functional, cell-based
HCT-116 [40] = assay: cells; conditions: Homo sapiens, HCT-116, 72 h
Description: Antiproliferative activity against human HCT-116 cells assessed as inhibition of cell growth measured after 72 hrs by CCK-8 method

SW-620 = assay: cells; conditions: Homo sapiens, SW-620, 72 h
Description: Antiproliferative activity against human SW-620 cells assessed as inhibition of cell growth measured after 72 hrs by CCK-8 method

HCT-15 = assay: cells; conditions: Homo sapiens, HCT-15, 72 h
Description: Antiproliferative activity against human HCT-15 cells assessed as inhibition of cell growth measured after 72 hrs by CCK-8 method

SW480 = assay: cells; conditions: Homo sapiens, SW480, 72 h
Description: Antiproliferative activity against human SW480 cells assessed as inhibition of cell growth measured after 72 hrs by CCK-8 method

Structure (SMILES): N#Cc1cccc(CN2CCC=C(C(=O)NCc3ccc(C(F)(F)F)cc3)C2)c1
- MIC (Staphylococcus aureus [1]): > 128 µg/mL
- MIC (Staphylococcus aureus [2]): > 128 µg/mL
- IC50 at 72 h [3]: 78.1 µM
- IC50 at 72 h [4]: 64.1 µM
- IC50 at 72 h [5]: 75.2 µM
- inhibition (HCT-116 [6]): Active
- Activity (Cell membrane): Active
- Activity (HCT-116 [7]): Dose-Dependent Effect
- Activity (HCT-116 [8]): 60%
- Activity (HCT-116 [9]): Dose-Dependent Effect
- Activity (HCT-116 [10]): Active
- Activity (HCT-116 [11]): Active
- Activity (HCT-116 [12]): 20%
- Activity [13]: Non-Toxic
- Activity [14]: Non-Toxic
- Activity [15]: Non-Toxic
- Activity [16]: Non-Toxic
- Activity [17]: Non-Toxic
- Activity [18]: 10%
- Activity [19]: Non-Toxic
- Activity (HCT-116 [20]): 55.1%
- Activity (HCT-116 [21]): 70%
- Activity (HCT-116 [22]): Active
- Activity (HCT-116 [23]): Active
- Cmax [24]: 966 ng/mL
- AUC [25]: 1433.6 ng·h/mL
- half-life [26]: 4.8 h
- CL [27]: 2.172 mL/min/kg
- Cmax [28]: 137 ng/mL
- AUC(0-t) [29]: 777 ng·h/mL
- MRT last [30]: 6.7 h
- bioavailability [31]: 54.2%
- CLint scaled at 1 µM [32]: 206 mL/min/kg
- Activity (HCT-116 [33]): Active
- Activity (HCT-116 [34]): Active
- Activity (HCT-116 [35]): Active
- Activity (HCT-116 [36]): Active
- Activity (HCT-116 [37]): Active
- Activity (HCT-116 [38]): inactive
- Activity (HCT-116 [39]): inactive
- IC50 (HCT-116 [40]): 1 µM
- IC50 (SW-620): 1.5 µM
- IC50 (HCT-15): 3.5 µM
- IC50 (SW480): 5.4 µM
